Legend:
BV-2 cells [1] = assay: Aβ1-42 clearance Protonex assay; format: cell-based, mouse; conditions: 25 μM HCQ pretreatment, Protonex Green label
Protocol: Aβ1-42 clearance-Protonex assay: For Abeta (Aβ1-42) clearance Protonex assay, 5000 BV-2 cells per well (uncoated 96 well plates) were plated out. After changing cells to treatment medium, HCQ (25 μM) was applied 1 hour before stimulation with Protonex™ Green 500, SE (21216, AAT Bioquest) labelled Aβ1-42 (Bachem 4061966; final concentration in well: 200 ng/ml (dilutions in medium)). Cells treated with vehicle and cells treated with Aβ1-42 alone served as controls. After 3 h of Aβ1-42 stimulation, cells were imaged on Cytation 5 multimode reader (Biotek) and green fluorescence was measured.

BV-2 cells [2] = assay: Aβ1-42 clearance assay; format: cell-based, mouse
Protocol: AB Clearance: For the amyloid beta (Aβ) clearance assay, 20000 BV-2 cells per well (uncoated 96 well plates) were plated out. After changing cells to treatment medium, drug compounds were administered 1 hour before Aβ stimulation (Bachem 4061966; final concentration in well: 200 ng/ml (dilutions in medium)). Cells treated with vehicle and cells treated with Aβ alone served as controls. After 3 h of Aβ stimulation, cell supernatants were collected for the Aβ measurement and cells were carefully washed twice with PBS and thereafter lysed in 35 μL cell lysis buffer (50 mM Tris-HCl, pH 7.4, 150 mM NaCl, 5 mM EDTA, 1% SDS) supplemented with protease inhibitors. Supernatants and cell lysates were analyzed for human Aβ42 with MSD® V-PLEX Human Aβ42 Peptide (6E10) Kit (K151LBE, Mesoscale Discovery). The immune assay was carried out according to the manual and plates were read on the MESO QuickPlex SQ 120.
Aβ1-42 clearance: For Abeta (Aβ1-42) clearance assay, 20,000 BV-2 cells per well (uncoated 96 well plates) were plated out. After changing cells to treatment medium, HCQ (0.25 μM, 2.5 μM and 25 μM) was applied 1 hour before Aβ1-42 stimulation (Bachem 4061966; final concentration in well: 200 ng/ml (dilutions in medium)). Cells treated with vehicle (0.1% DMSO) and cells treated with Aβ1-42 alone served as controls. After 3 h of Aβ1-42 stimulation, cell supernatants were collected for the Aβ1-42 measurement and cells were carefully washed twice with PBS and thereafter lysed in 35 μL cell lysis buffer (50 mM Tris-HCl, pH 7.4, 150 mM NaCl, 5 mM EDTA, 1% SDS) supplemented with protease inhibitors. Supernatants and cell lysates were analyzed for human Aβ1-42 with MSD® V-PLEX Human Aβ42 Peptide (6E10) Kit (K151LBE, Mesoscale Discovery). The immune assay was carried out according to the manufacturer's manual and plates were read on the MESO QuickPlex SQ 120.
Aβ Clearance: 20,000 BV2 cells per well (uncoated 96-well plates were plated out. After changing cells to treatment medium, drug compounds were administered 1 hour before Aβ stimulation (final concentration in well 200 ng/ml; dilutions in medium). Cells treated with vehicle and cells treated with Aβ alone served as controls. After 3 hours of Aβ stimulation, cell supernatants were collected for the Aβ measurement and cells were carefully washed twice with PBS and thereafter lysed in 35 μl of cell lysis buffer (50 mM tris-HCl, pH 7.4, 150 mM NaCl, 5 mM EDTA, and 1% SDS) supplemented with protease inhibitors. Supernatants and cell lysates were analyzed for human Aβ42 with the MSD V-PLEX Human Aβ42 Peptide (6E10) Kit (K151LBE, Mesoscale Discovery). The immune assay was carried out according to the manual, and plates were read on MESO QuickPlex SQ 120 (Meso Scale Diagnostics, Rockville, MD).
For Aβ clearance assay, 20,000 BV-2 cells per well (uncoated 96 well plates) were plated out. After 24 hours, medium was changed to treatment medium (DMEM, 5% FCS, 2 mM L-glutamine) and cells were maintained in treatment medium for the remaining culture period. After changing cells to treatment medium, the test items were administered 1 hour before Aβ stimulation (Bachem 4061966; final concentration in well: 200 ng/mL (dilutions in medium)). Cells treated with vehicle, cells treated with Aβ alone, as well as wells with Aβ but no cells served as controls. All wells were handled the same way. After 3 h of Aβ stimulation, cell supernatants were collected for the Aβ measurement and cells were carefully washed twice with PBS and thereafter lysed in 35 μl cell lysis buffer (50 mM Tris-HCl, pH 7.4, 150 mM NaCl, 5 mM EDTA, 1% SDS) supplemented with protease inhibitors. Cells were incubated for 15 min at RT on a plate shaker, samples were frozen at −80° C. until further use. The experiment was performed in n=6 technical replicates for all groups. […]

Row | SMILES | microglial uptake of Aβ1-42 into acidic cellular compartments (BV-2 cells [1]) | Aβ1-42 clearance (BV-2 cells [2]; 25 μM) | Aβ1-42 in the supernatant (BV-2 cells [2]; 25 μM) | Aβ1-42 supernatant:lysate ratio (BV-2 cells [2]; 25 μM) | cell viability (BV-2 cells [2]; 25 μM) | effect in Aβ clearance (BV2 cells) (BV-2 cells [2]; posterior probability of a protective effect, Bayesian dose-response model)
1 | CCN(CCO)CCCC(C)Nc1ccnc2cc(Cl)ccc12 (stereo not drawn) [HCQ, hydroxychloroquine] | enhances | increased | reduced | lowering | without adverse effects on cell viability | 
2 | C[C@H](CCC(=O)NCCS(=O)(=O)O)[C@H]1CC[C@H]2[C@@H]3[C@@H](O)C[C@@H]4C[C@H](O)CC[C@]4(C)[C@H]3CC[C@]12C [TUDCA, tauroursodeoxycholic acid] |  |  |  |  |  | strongly protective

— patent US20240269128A1, “COMPOUNDS FOR TREATING OR PREVENTING ALZHEIMER'S DISEASE” (THE UNITED STATES OF AMERICA, as represented by the …, priority 2021, published 2024)
